The test system of series [1] is PANC-1 tumor orthotopic xenograft. The experiment in a line: PANC-1 tumor orthotopic xenograft mouse model (BLI tumor burden, tumor weight). Format: in vivo. Particulars: four weeks; for Tumor weight, % of control / Tumor weight, mean: Table 19; for Tumor weight, mean: control 0.425; for BLI data, mean: control 3.003. An excerpt: Human PDCA cell line PANC-1 was transduced with pre-made lentiviral vectors encoding luciferase (firefly)/red fluorescent protein (RFP) to enable monitoring of the growth of primary tumor and metastasis. […] For in vivo experiments, Nonobese diabetic/severe combined immunodeficiencyNOD-SCID mice (Jackson Labs, Bar Harbor, ME, or inhouse breeding) were first brought under anesthesia with isoflurane (2.5% in 100% oxygen, 1 L/min) in an induction chamber and maintained under adequate anesthesia (isoflurane inhalation) while being laid on a warming pad throughout the surgical procedure. For tumor generation, 5×10^4 luciferase-tagged PANC-1 cells were co-inoculated with 3×10^5 lymph node stromal cell (LNSC) analog HK cells. The mice received a 0.75-1.2 cm long incision (on the left side of the body slightly medial to the splenic silhouette) to exteriorize the spleen and pancreas. While gently retracting the pancreas laterally, a 30 G needle was inserted along the length of the pancreas from the tail to the pancreatic head region. Then, 10 μl of cell suspension was injected as the needle was withdrawn to the mid-body of the pancreas. The needle was removed, and the area was inspected for leakage and bleeding. The pancreas and spleen were internalized with forceps and the abdominal muscle layer was closed with interrupted stitches (3-0 silk suture). The overlying skin was closed with a second set of interrupted stitches. Buprenorphine SR-LAB was injected subcutaneously immediately after the surgery for pain relief.
After the surgery, tumor growth and metastatic tumor burden were monitored and assessed weekly for luciferase activity by bioluminescence imaging (BLI) using Lago Imaging System (Spectral Instruments Imaging, Tucson, AZ). Mice were anesthetized using isoflurane for all imaging procedures. Mice were administered intraperitoneally with luciferin (10 mg/kg) and imaged in 10-20 minutes for maximum luciferase signal plateau. Images were analyzed using Aura Imaging software. Once the BLI levels of xenografted tumor reached 5×10^8 photons (around 7-9 weeks post PANC-1 cell injection), the mice were grouped based on their BLI level and compounds (e.g., drugs) of the present disclosure were given by gavage daily to each group for 4 weeks. […] Upon sacrifice after 4 weeks of treatment, primary tumors and mouse organs were harvested, weighed, imaged, and formalin-fixed for (hematoxylin and eosin) H&E and immunohistochemistry staining. Data was statistically analyzed using t-test, or t-test with Bonferroni correction.

The conditions of series [2]: mouse, in vivo; cited from earlier work.
Another series deals with PANC-1 cells. The experiment in a line: WST1 cell proliferation assay, PANC-1 cells. Type of series: cell-based, human. On the procedure:
(§1) PDA cell line (PANC-1 or HS766T) or patient cancer cells (PaCa9) were trypsinized with 1% trypsin in Hank's Balanced Salt Solution (HBSS), counted, washed, and resuspended in serum free AIM media (ThermoFisher Scientific, Waltham, MA) or complete Dulbecco's Modified Eagle Medium (DMEM) supplemented with 10% fetal bovine serum, […], 100 U/ml of penicillin G, and […] of streptomycin. Cells at a concentration of 2-4×10^4 cells/well in 100 μl culture medium were seeded in triplicate in 96 well plates, then cultured in a humidified incubator at 37° C. and 5% CO2. On the next day, cell supernatant was discarded and compounds (e.g., drugs) of the present disclosure in 200 μl medium were added with the concentrations indicated in the following Examples. After 72 hours of culture, cell proliferation reagent WST1 (20 μl/well, Sigma Aldrich Inc, St. Louis, MO) were added and plates were read using an ELISA reader at 2 hours and 4 hours under the wavelength of 450 nm. The measured absorbance (OD value) was recorded and graphed and statistically analyzed using GraphPad Prism 8, t-test, or t-test with Bonferroni correction.
On the technique in general: Tetrazolium dyes change colour on reduction, which living cells bring about.

The subject of another series is HS766T cells. The experiment in a line: WST1 cell proliferation assay, HS766T cells. Type of series: cell-based. The protocol: as §1
Series [3] concerns PaCa-9 PDAC patient tumor cells. The series can be described thus: WST1 cell proliferation assay, PaCa-9 PDAC patient tumor cells. Format: cell-based, human. Particulars: for cell proliferation, WST1 absorbance (OD value, 450 nm), mean: 10% FCS-DMEM. The protocol:
as §1, with “Louis, MO) were added and plates were read using an ELISA reader at 2 hours and 4 hours under the wavelength of 450 nm.” left out

For series [4], the system named is PDCA cells (PANC-1, HS766T, PaCa9). The series can be described thus: In vitro PDCA cell proliferation (WST1), summary statements over the cell lines tested. Type of series: cell-based. On the procedure: as §1
For series [5] the following is noted: 0.1 mg/kg by subcutaneous injection; cited from earlier work.
The mark [6] stands for this setting: Candesartan Cilexitil (60 mg/kg).

Data on 5 molecules can be found in patent US12527785B2, “Renin-angiotensin-aldosterone system (RAAS) inhibitors in the treatment of pancreatic ductal carcinoma” (OCHSNER CLINIC FOUNDATION, priority 2023, dated 2026).

SMILES strings stand for the structures.

Take `CCOc1nc2cccc(C(=O)OC(C)OC(=O)OC3CCCCC3)c2n1Cc1ccc(-c2ccccc2-c2nnn[nH]2)cc1` (stereo not shown) [Candesartan Cilexitil]: in series [1] (setting [6]), the “Tumor weight, % of control” value is on record as 38% and the “Tumor weight, mean” value is listed as 0.163 g. Moreover, in series [2], the “Safety of oral administration to mice” value is reported as “safely”.
As for `CCOc1nc2cccc(C(=O)O)c2n1Cc1ccc(-c2ccccc2-c2nnn[nH]2)cc1` [Candesartan], the “Effective (statistically significant, p<0.05, decrease in cell proliferation by WST1 assay)” value (in the series on PANC-1 cells (20 μM); in the series on HS766T cells (20 μM); in series [3] (20 μM)) was “effective” throughout. The “cell proliferation, WST1 absorbance (OD value, 450 nm), mean” value (shortened to “cell proliferation, WST1 absorbance”) was 0.612 in the series on PANC-1 cells (Candesartan 20 μM, Table 5A, 10% FCS-DMEM, 2×10^4 cells per well, Medium/DMSO 3.348); 2.856 with HS766T cells (Candesartan 10 μM, Table 2, 2 h, 10% FCS-DMEM, control 3.214); 0.620 in the series with HS766T cells (Candesartan 20 μM, Table 6A, 10% FCS-DMEM, 2×10^4 cells per well, control 3.339); 3.694 in series [3] (Candesartan 10 μM, Table 3, 1 h, Medium/DMSO 3.571); 0.464 in series [3] (Candesartan 20 μM, Table 7A, 2×10^4 cells per well, control 3.535). The “BLI data, % of control” value in series [1] (Candesartan (30 mg/kg)) was found to be 67%. In series [1] (Candesartan (30 mg/kg)), the “BLI data, mean” value is listed as 2.016. The “Minimum effective dose (concentration) in vitro” value in series [4] (PANC-1, Hs766T and PaCa9 cells) was approximately 20 µM. The “Change in cellular proliferation” value in series [4] (candesartan 10 μM) is reported as “no statistical change in cellular proliferation”.
As for `CCCCc1nc(Cl)c(CO)n1Cc1ccc(-c2ccccc2-c2nn[nH]n2)cc1` [Losartan], the “cell proliferation, WST1 absorbance” value in the series with PANC-1 cells (Losartan 100 μM, Table 1, 2 h, 10% FCS-DMEM, control 3.618) is recorded as 2.507; with PANC-1 cells (Losartan 100 μM, Table 5A, 10% FCS-DMEM, 2×10^4 cells per well, Medium/DMSO 3.348), 3.699; in the series on HS766T cells (Losartan 100 μM, Table 2, 2 h, 10% FCS-DMEM, control 3.214) it was 2.992; in the series on HS766T cells (Losartan 100 μM, Table 6A, 10% FCS-DMEM, 2×10^4 cells per well, control 3.339), 3.182; in series [3] (Losartan 100 μM, Table 3, 1 h, Medium/DMSO 3.571), 3.392; in series [3] (Losartan 100 μM, Table 7A, 2×10^4 cells per well, control 3.535), 3.161. For the same molecule, the “BLI data, % of control” value in series [1] (Losartan (60 mg/kg)) is 73%. Besides, in series [1] (Losartan (60 mg/kg)), the “Tumor weight, % of control” value turned out to be 87%. Also, the “Tumor weight, mean” value in series [1] (Losartan (60 mg/kg)) is 0.3691 g. Besides, the “BLI data, mean” value in series [1] (Losartan (60 mg/kg)) was found to be 2.199. The “Change in cellular proliferation” value in series [4] (losartan 100 μM) is “no statistical change in cellular proliferation”.
In the case of `Cc1cc(Cn2cnc3c2C[C@@H](C(=O)O)N(C(=O)C(c2ccccc2)c2ccccc2)C3)ccc1N(C)C` [PD123319], the “cell proliferation, WST1 absorbance” value came to 2.724 in the series on PANC-1 cells (10 μM, Table 8, 2 h, DMEM-10% FCS, control 3.922); 2.120 with PANC-1 cells (10 μM, Table 10, 2 h, serum free media, control 3.443); 2.823 in the series with PANC-1 cells (10 μM, Table 12, 2 h, 10% FCS DMEM, N = 6, control 3.37); 1.048 in the series with PANC-1 cells (10 μM, Table 14, 2 h, serum free media, N = 6, control 1.208); 2.60 in the series on PANC-1 cells (30 μM, Table 8, 2 h, DMEM-10% FCS, control 3.922); 1.970 in the series on PANC-1 cells (30 μM, Table 10, 2 h, serum free media, control 3.443). The “cell proliferation, WST1 absorbance” value with PANC-1 cells (30 μM, Table 12, 2 h, 10% FCS DMEM, N = 6, control 3.37) is 2.854; with PANC-1 cells (30 μM, Table 14, 2 h, serum free media, N = 6, control 1.208) it was 0.7668; with PANC-1 cells (50 μM, Table 8, 2 h, DMEM-10% FCS, N = 1, control 3.922) it was 1.951; in the series with PANC-1 cells (50 μM, Table 10, 2 h, serum free media, control 3.443) it was 2.146; with PANC-1 cells (50 μM, Table 12, 2 h, 10% FCS DMEM, N = 6, control 3.37), 2.873; with PANC-1 cells (50 μM, Table 14, 2 h, serum free media, N = 6, control 1.208), 0.728. Also, the “cell proliferation, WST1 absorbance” value was 1.336 in the series on HS766T cells (10 μM, Table 9, 2 h, DMEM-10% FCS, control 2.025); 1.24 in the series on HS766T cells (10 μM, Table 11, 2 h, serum free media, control 2.0695); 2.895 in the series on HS766T cells (10 μM, Table 13, 2 h, 10% FCS DMEM, control 2.913); 1.708 in the series on HS766T cells (10 μM, Table 15, 2 h, serum free media, N = 6, control 1.906); 1.397 in the series with HS766T cells (30 μM, Table 11, 2 h, serum free media, control 2.0695); 2.555 with HS766T cells (30 μM, Table 13, 2 h, 10% FCS DMEM, control 2.913). The “cell proliferation, WST1 absorbance” value in the series with HS766T cells (30 μM, Table 15, 2 h, serum free media, N = 6, control 1.906) is on record as 1.56; in the series on HS766T cells (50 μM, Table 11, 2 h, serum free media, control 2.0695) it was 1.235; with HS766T cells (50 μM, Table 13, 2 h, 10% FCS DMEM, control 2.913) it was 1.886; with HS766T cells (50 μM, Table 15, 2 h, serum free media, N = 6, control 1.906) it was 1.154. In series [4] (10 μM, 30 μM, and 50 μM, presence or absence of serum), the “Effective in inhibiting PDCA cell proliferation in vitro” value is recorded as “effective”. Further, the Activity in rats entry in series [5] is given as “active”.
For `CC(=O)S[C@@H]1CC2=CC(=O)CC[C@]2(C)[C@H]2CC[C@@]3(C)[C@@H](CC[C@@]34CCC(=O)O4)[C@H]12` [Spironolactone], in series [1] (Spironolactone (100 mg/kg)), the “Tumor weight, % of control” value stood at 69% and the “Tumor weight, mean” value is 0.292 g.
